Assays:
[1] = Comparative brain/liver uptake of 14C-labeled compounds (Brain Penetration Index)
Protocol: The criterion used herein for measuring the extent to which a compound, from which the radical A is derived, crosses the blood-brain barrier is based on the uptake of this compound by the brain relative to its uptake by the liver. […] Measurements of the quantity of a compound present in brain and liver at 5 minutes after a subcutaneous (s.c.) injection were used to calculate a Brain Penetration Index (BPI), with the equation: [formula]
This is the amount of the compound present per gram of brain tissue as a percent of the amount per gram of liver tissue.
This procedure has the advantage that even for a sparingly soluble lipid ester, which tends to remain largely at the site of the injection and slowly diffuse into the circulation, its level in the liver will reflect the amount available rather than the initial dose injected.
The uptake of a ^14C-labeled compound into brain was compared with the uptake into liver of the same animal.
All determinations were carried out at 5 min after injection. The volumes of the injected doses into mice (body weight, 18-24 g) for the i.v., i.p., and s.c. doses were 0.15, 0.3 and 0.5 ml, respectively. […] Each tissue was homogenized in 8 ml of pyridine in a glass homogenizer.
Each labeled test compound was injected as a solution in 0.5 ml of saline (Compound 7) or in 25% propylene glycol in water (Compounds 1, 5, 6) subcutaneously (s.c.) into young adult Balb/c mice (18-24 g body weight). After 5 min (or longer) animals were sacrificed and the brain and liver removed, weighed and homogenized respectively in 8 ml and 10 ml of brain protein solvent (1 % (w/v) sodium dodecyl sulfate in 6 M urea and 19 mM EDTA, pH 7.4, 0.03 M phosphate). Aliquots (0.5 ml) of the homogenates were mixed with 10 ml of Aquasol 2 (New England Nuclear) and counted in a Beckman liquid scintillation counter. The total uptake of each compound per g brain and liver tissue was calculated. The proportion of uptake into brain as compared to liver (100%) of the same animal was designated as the Brain Penetration Index (BPI), expressed as a percentage typically at 5 min after injection.
Each of the ^14C-labeled Compounds 26, 28 and 30 were in 125 µl of the propylene glycol diluted with water up to 0.5 ml, and then injected subcutaneously into test Balb/c mice (20 ± 2 g weight). After 5 min the animals were sacrificed and the brain and liver were removed, weighed and homogenized in 8 ml and 10 ml of brain protein solvent, respectively. Next 0.5 ml aliquots were mixed with 10 ml of Aquasol 2 (New England Nuclear Corp., Boston, MA) and counted in a Beckman liquid scintillation counter. The data for the label in each tissue were used to calculate the total quantity of the compound present in brain and liver per gram of tissue. The ratio of the amount in brain as a percent of that present in liver at 5 min was taken as the Brain Penetration Index (BPI). Measurements at longer uptake times were also obtained to evaluate the accumulation of the compounds in the brain.

[2] = system: general motor activity of mice; assay: General locomotor activity of mice (Stoelting electronic activity monitor); type: in vivo, Balb/c mice
Protocol: The effect of intraperitoneal (i.p.) injections of test compounds on the general motor activity of mice during a 60-min period was determined in a Stoelting electronic activity monitor. Dose-response curves were obtained from which the half-maximally effective values were calculated and the results are shown in Table V.
The compounds were dissolved in 25% (vols.) propylene glycol in water and injected i.p. into Balb/c mice (18-24 g). Dose-response measurements were obtained for 6 animals per dose or time point. Activity was monitored for 60 min using a Stoelting Electronic Activity Monitor (EAM) apparatus to assess the general motor activity of the animals.
The general locomotor activity of mice was measured in the Stolting activity monitor apparatus during 60 min after an intraperitoneal (i.p.) injection of a test compound.

GABA "receptors" = assay: Inhibition of [3H]GABA binding to synaptic membranes from rat cerebellum; conditions: [3H]GABA (15 nM); synaptic membrane preparations from rat cerebellum
Protocol: IC50 values were determined by fitting data to linearized transformations, based on including at least two concentrations of antagonists above and below the IC50, with at least triplicate replication per concentration.

[3] = 50 μmol/kg s.c., 5 min, mice, mean ± S.E.M. (n = 3)

For “(3-Cholesteryl)-gamma-Aminobutyrate [Compound 6]”, the “(BRAIN)” value [1, 3] was 0.17 ± 0.03 nmol/g, the “(LIVER)” value [1, 3] was 0.69 ± .08 nmol/g and the BPI [1, 3] was 25 ± 7%. The “(BRAIN)” value ([1]; 50 μmol/kg s.c., 15 min, mice) was 0.67 nmol/g, the “(LIVER)” value ([1]; 50 μmol/kg s.c., 15 min, mice) was 1.19 nmol/g and the BPI ([1]; 50 μmol/kg s.c., 15 min, mice) was 56%. The “(BRAIN)” value ([1]; 50 μmol/kg s.c., 60 min, mice) was 0.79 nmol/g, the “(LIVER)” value ([1]; 50 μmol/kg s.c., 60 min, mice) was 0.92 nmol/g and the BPI ([1]; 50 μmol/kg s.c., 60 min, mice) was 86%. The “(BRAIN)” value ([1]; 50 μmol/kg s.c., 180 min, mice) was 0.60 nmol/g, the “(LIVER)” value ([1]; 50 μmol/kg s.c., 180 min, mice) was 1.89 nmol/g and the BPI ([1]; 50 μmol/kg s.c., 180 min, mice) was 32%. The “increase of 5-min BPI over GABA” value ([1]; 5 min after s.c. injection, relative to GABA) was 25 fold, the BPI ([1]; Table IX summary, 5-min Brain Penetration Index) was 25 and the “accumulation of radioactivity in brain persisted post-injection” value ([1]; s.c., mice) was 45 to 60 min. For the same substance, the “In Vivo Inhibition of General Motor Activity” value ([2]; graded 0-5) was 5, the “activity in the general motor activity test (in words)” value ([2]; i.p., mice) was “active” and the “i.p. injected dose at which motor activity was reduced by 50%” value ([2]; mice, Fig. 1, n = 6 per dose, 60 min) was 17 µmol/kg. For the same substance, the IC50 (GABA "receptors") was 10 µM.
